The values that follow come from ChEMBL document CHEMBL3507680, “University of Dundee, Gates Library screen for HepG2 cell viability”.

The data set in a line: Human HepG2 cell viability assay in 384 well format. Type of data set: toxicity, cell-based. Also noted: dose 125 nL, time 70.5 hour; cytotoxicity at 70.5 h: concentration not given beside the values. The settings on record: HepG2 cells, read-out: Inhibition.
As to `Cc1cnn(C2CCCN(C(=O)CCc3cscn3)C2)c1` (stereo unspecified), the cytotoxicity at 70.5 h came out at 2.26%.
For the compound `CCCn1nccc1S(=O)(=O)N1CCC2(CCCN(C(C)C)C2=O)C1` (stereo unspecified), the cytotoxicity at 70.5 h came to 17.4%.
Turning to `COc1ccc(C)cc1CC(=O)N1CC[C@@]2(CCCO2)[C@@H](O)C1`, the cytotoxicity at 70.5 h is -5.66%.
Take `CNC(=O)COC1COC2(CCN(c3cnccn3)CC2)C1` (stereo unspecified): the cytotoxicity at 70.5 h came to 4.72%.
For `Cc1nnc(C(C)Nc2cccc(COCC(F)(F)C(F)F)c2)o1` (stereo unspecified), the cytotoxicity at 70.5 h was determined as 24.9%.
`O=C(c1ccoc1)N1CCOCC2(CCN(Cc3cccs3)C2)C1` (stereo unspecified): the cytotoxicity at 70.5 h is -12.4%.
On to `O=C(NS(=O)(=O)c1ccc(F)cc1)C1CCOc2ccccc21` (stereo unspecified), for which the cytotoxicity at 70.5 h is -3.97%.
Regarding `COCCNC(=O)[C@@H]1C[C@@H]2CCN(c3ncccn3)C[C@H]2O1`, the cytotoxicity at 70.5 h stood at 24.2%.
For the compound `CCOc1ccnc(N2CCN(Cc3ncccc3C)CC2)n1`, the cytotoxicity at 70.5 h stood at 3.5%.
With `Cc1noc(C)c1CN1CC[C@H]2C[C@H](c3ccncn3)O[C@@H]2C1` the figure was -8.76%.
As for `Cc1ccccc1N1CCN(C(=O)c2cnc(N(C)C)nc2C)C(C)C1` (stereo unspecified), the cytotoxicity at 70.5 h is -7.48%.
As to `Cc1cc(C)nc(NCCC(=O)NCCn2ccnc2C)n1`, the cytotoxicity at 70.5 h turned out to be 3.01%.
With `CC(C)(C)Oc1ccc(CN)c(C(F)(F)F)c1`, the cytotoxicity at 70.5 h was 6.84%.
As to `N#Cc1cc2c(nc1SCc1cc(O)nc(O)n1)CCCC2`, the cytotoxicity at 70.5 h was -7.89%.
On to `Cc1ccc(CN(C(=O)C(C)S(C)(=O)=O)C2CC2)cc1C` (stereo unspecified), for which the cytotoxicity at 70.5 h is -4.96%.
Regarding `CC(C)n1cc(CN2CCCN(C(=O)CC3CCCCC3)CC2)cn1`, the cytotoxicity at 70.5 h was -0.435%.
As for `CC(c1ccco1)N(C(=O)Cn1nc2n(c1=O)CCCCC2)C1CC1` (stereo unspecified), the figure is 18%; as for `CCN(C)c1ncc2c(c1C(=O)O)CCN(C1CCOC1)C2` (stereo unspecified), 0.989%; as for `CC1CCCN(C(=O)CCc2cccnc2)C1` (stereo unspecified), -3.28%.
As for `CCCn1ccnc1CN1CCC(O)(CN2CCCCC2)C1` (stereo unspecified), the cytotoxicity at 70.5 h was -4.35%.
For `COc1ncnc2c1CCN(Cc1cccc(C)n1)CC2`, the cytotoxicity at 70.5 h was found to be 5.99%.
For the compound `COCCNC(=O)c1cc(C(C)C)nc(N2CCCC2)n1`, the cytotoxicity at 70.5 h is -9.32%.
For the compound `Cc1ncsc1C(=O)NCc1ccnc(N2CCN(C)CC2)c1`, the cytotoxicity at 70.5 h is -7.54%.
With `O=C1CN(C(=O)CC2C(=O)NCCN2CC2CCCCC2)CCN1` (stereo unspecified) the figure was 28.9%; with `CCOc1nnc(CN2CCC(N(C)Cc3noc(C)n3)C2)s1` (stereo unspecified), -8.7%.
With `O=S(=O)(c1cc(F)ccc1F)N1CCCC1c1ccncc1` (stereo unspecified), the cytotoxicity at 70.5 h was -3.85%.
Take `CCC(=O)N1CCN(c2cc(-n3cnc(C)c3C)nc(C)n2)CC1`: the cytotoxicity at 70.5 h worked out at 20.4%.
Consider `Cc1ccc(F)c(NCC(C)(C)S(C)(=O)=O)c1`, for which the cytotoxicity at 70.5 h was -2.22%.
Consider `CN(CC(=O)NC(C)(C)C)C(=O)c1cccn1CCc1ccccc1`, for which the cytotoxicity at 70.5 h turned out to be 5.51%.
With `OCC1CN(Cc2nc(C(F)(F)F)cs2)c2ccccc2O1` (stereo unspecified), the cytotoxicity at 70.5 h is -9.55%.
As for `O=C(c1ccoc1)N1CCO[C@]2(CCC[C@@H]2COCc2cccnc2)C1`, the figure is -1.92%; as for `CCC(C)CN(C)C(=O)NCc1ccccc1-n1cccn1` (stereo unspecified), 1.17%.
For `Cc1c(C(N)=O)sc2nc(C(F)(F)F)ccc12`, the cytotoxicity at 70.5 h turned out to be 19.9%.
For the compound `Cc1ccc(-c2ccnc(NCC(O)c3ccc(O)cc3)n2)c(C)n1` (stereo unspecified), the cytotoxicity at 70.5 h is -4.44%.
In the case of `COc1cccc(CN2CCC3(CCN(C(=O)[C@H]4CCCO4)CC3)C2)c1`, the cytotoxicity at 70.5 h was -4.99%.
As for `Cc1cc(C)n(C2CCCN(C(=O)c3ccc(N(C)C)nc3)C2)n1` (stereo unspecified), the figure is -2.57%.
Consider `CC1N(C)C(=O)COC12CCN(Cc1ccsc1)CC2` (stereo unspecified), for which the cytotoxicity at 70.5 h stood at 4.85%.
As for `CCCn1nccc1-c1cnc(CC2CCN(C(C)=O)C2)cn1` (stereo unspecified), the figure is -3.63%.
As for `Cc1ccc(C)c(NC(=O)Nc2c[nH]c(=O)[nH]c2=O)c1`, the figure is -27.8%.
With `CN1CCN(C2CCCC2)C(CCO)C1` (stereo unspecified) the figure was -1.81%; with `CS(=O)(=O)N1CCCC(Cc2cncc(Br)c2)CC1` (stereo unspecified), -2.69%; with `Cc1ccc2c(c1)C(NCc1ccccn1)CC2` (stereo unspecified), -12.6%.
As to `Cc1nc[nH]c1CN(C)Cc1cnn(-c2ccc(F)cc2)c1`, the cytotoxicity at 70.5 h came to 28.9%.
With `O=C(CCN1CCOCC1)NC1CCCN(CC2CCCCC2)C1` (stereo unspecified) the figure was -3.9%; with `Cc1nccn1-c1ccc(=O)n(CCNC(=O)Cc2ccccc2)n1`, -12.3%; with `CN(Cc1cnc(N)nc1)C(=O)C1CC(=O)N(Cc2ccncc2)C1` (stereo unspecified), -10.8%.
With `CC1CN(C(=O)c2sccc2Br)CCO1` (stereo unspecified) the figure was -10.9%; with `O=C(NCc1ccc2c(c1)OCO2)[C@@H]1C=CCN1c1ncccn1`, -1.63%; with `CCNc1ncc(C(=O)N(C)Cc2nc3cc(Cl)ccc3[nH]2)cn1`, -13.7%.
In the case of `CCc1cc(CNC(=O)N2Cc3ccccc3N(C)CC2C)[nH]n1` (stereo unspecified), the cytotoxicity at 70.5 h was -0.192%.
With `NC(=O)c1cccc(CC2CCN(C(=O)CCCN3CCOCC3)C2)c1` (stereo unspecified), the cytotoxicity at 70.5 h is -4.93%.
For `CCCS(=O)(=O)N1CCN(CC(F)(F)F)CC1`, the cytotoxicity at 70.5 h is -5.82%.
With `Cc1ccc(OCCCC(=O)NC(C)c2nnc3n2CCC3)cc1` (stereo unspecified), the cytotoxicity at 70.5 h is -0.817%.
With `CC(C1CC1)N(C)Cc1nnc(-c2ccc(Br)s2)o1` (stereo unspecified) the figure was -2.75%; with `Cc1cnn(CCNCc2ccc(OCc3ccncc3)cc2)c1`, 0.513%.
For `COc1ccc2nnc(CCCC(=O)Nc3nc4c(s3)CCC4)n2n1`, the cytotoxicity at 70.5 h was -17.4%.
Turning to `Cc1cc(C2CCCN2Cc2cc(-c3ccco3)on2)on1` (stereo unspecified), the cytotoxicity at 70.5 h is -14.5%.
On to `CN(CC(=O)NC(Cc1ccccc1)C1CCCC1)S(C)(=O)=O` (stereo unspecified), for which the cytotoxicity at 70.5 h is -3.31%.
Consider `Cc1cc(C(=O)NCc2ccnc(N(C)C)c2)c(C)o1`, for which the cytotoxicity at 70.5 h is -13.2%.
For the compound `CCc1cc(N2CCC3(CCCNC3=O)C2)nc(N2CCOCC2)n1` (stereo unspecified), the cytotoxicity at 70.5 h is -4.73%.
In the case of `CCN1CC2(CC1=O)CN(C(=O)c1ccco1)CCN(C(=O)N(C)C)C2` (stereo unspecified), the cytotoxicity at 70.5 h is -5.37%.
For `CC1c2ncc(CN3CCN(C)CC3)n2CCN1CC1CC1` (stereo unspecified), the cytotoxicity at 70.5 h was -11.9%.
Regarding `Cc1cccc(N2CCc3ncnc(C4CC4)c3CC2)n1`, the cytotoxicity at 70.5 h is -10.3%.
As for `COCC(=O)N1CCC2(CC1)CC(OC)c1ccc(F)cc12` (stereo unspecified), the cytotoxicity at 70.5 h was -0.706%.
On to `Cc1nn(C)c(N(C)C)c1CNCCOc1ccc2c(c1)OCO2`, for which the cytotoxicity at 70.5 h is -4.86%.
On to `COC(=O)CCNC(=O)c1ccc(OCc2ccccc2)nc1`, for which the cytotoxicity at 70.5 h is -6.92%.
Turning to `Fc1ccc(CN2CCC(c3noc(-c4cnccn4)n3)CC2)cc1F`, the cytotoxicity at 70.5 h is -1.05%.
In the case of `CCN(CC)C(=O)C(c1ccccc1)N1CCn2c(C)nnc2C1` (stereo unspecified), the cytotoxicity at 70.5 h worked out at 2.24%.
For `Cc1nc(CCCNC(=O)C2CC(=O)N(C3CC3)C2)sc1C` (stereo unspecified), the cytotoxicity at 70.5 h turned out to be 3.65%.
For the compound `CCc1n[nH]c(C2CN(C(=O)c3ncoc3C(C)C)CCO2)n1` (stereo unspecified), the cytotoxicity at 70.5 h is -9.85%.
For `O=C(CCCOc1ccccc1F)NCCCC(=O)Nc1cn[nH]c1`, the cytotoxicity at 70.5 h was -3.66%.
As to `O=C(c1ccco1)N1CCO[C@@H]2CN(Cc3nccs3)CC[C@@H]2C1`, the cytotoxicity at 70.5 h was -6.2%.
As for `CSc1nnc(C2CCN(C(=O)N3CCCC3)CC2)n1C(C)C`, the cytotoxicity at 70.5 h is 2.59%.
Consider `CC(C)Oc1ncnc2c1CCN(c1cc(C(F)(F)F)ncn1)CC2`, for which the cytotoxicity at 70.5 h stood at 4.68%.
As for `O=C(NCCNCc1cccc2c1OCCCO2)C1CCCC1`, the cytotoxicity at 70.5 h was determined as 14.5%.
For `CC(C)Cc1nc(CN2CCC3(CCCO3)CCC2=O)no1` (stereo unspecified), the cytotoxicity at 70.5 h is 0.922%.
As to `CC(C)CN1CCC2(CCN(Cc3ccoc3)CC2)C1=O`, the cytotoxicity at 70.5 h is -12.7%.
Consider `O=C(Cc1cccc(F)c1)N1CCc2ncnc(NC3CC3)c2CC1`, for which the cytotoxicity at 70.5 h was found to be 1.87%.
Take `CCc1ccc(C(NC(=O)CN(C)S(C)(=O)=O)C(C)(C)C)o1` (stereo unspecified): the cytotoxicity at 70.5 h was -7.8%.
For `CC(C)c1ccc(OCC(=O)N(C)C)cc1`, the cytotoxicity at 70.5 h is -9.35%.
With `Cc1nc(-c2ccco2)ccc1C(=O)N1CCn2c(C)nnc2C1` the figure was -17.1%; with `CCCNC(=O)N1CCCC2(CCC(=O)N(CCc3c[nH]cn3)C2)C1` (stereo unspecified), -1.2%; with `COc1cccc(CN(C)C(=O)NCc2c(C)cc(C)[nH]c2=O)c1`, -4.51%.
`Cc1ncsc1CCC(=O)N1CCn2cccc2C1c1cccnc1` (stereo unspecified): the cytotoxicity at 70.5 h is -3.49%.
With `c1ccc(-c2cc(CNCCCN3CCCCC3)c3nnnn3c2)cc1` the figure was -0.978%; with `CCCNC(=O)Nc1ccn(CCCOC)n1`, 9.71%.
Turning to `O=C(c1ccc2ccccc2n1)N1CCC2(CCN2c2ncccn2)C1` (stereo unspecified), the cytotoxicity at 70.5 h is 2.64%.
Regarding `CN(CC(=O)N1CC(C)(C)[C@@](C)(O)C1)Cc1ccncc1`, the cytotoxicity at 70.5 h is -6.29%.
As to `Cc1nc(C)n(CC2CCCCN2Cc2cscn2)n1` (stereo unspecified), the cytotoxicity at 70.5 h is -5.99%.
As to `COCCN1CCCCC12CC(=O)N(c1cccc(C#N)c1)C2` (stereo unspecified), the cytotoxicity at 70.5 h is -4.04%.
As to `Cc1noc(C)c1C(=O)N1CC[C@]2(C[C@@H](OCc3cccnc3)CO2)C1`, the cytotoxicity at 70.5 h is -9.24%.
Turning to `COCCN1CCC(NCc2ccc(C#N)cc2)C1` (stereo unspecified), the cytotoxicity at 70.5 h was 34.1%.
With `CC(C)(C)n1ccc(C(=O)N2CCCC(c3ccc(C(=O)O)cc3)C2)c1` (stereo unspecified) the figure was -13.3%.
On to `Cc1ncc(CNC(=O)N(C)Cc2ccc([S+](C)[O-])cc2)s1` (stereo unspecified), for which the cytotoxicity at 70.5 h is -4.15%.
As to `CC(C)c1noc(CS(=O)(=O)Cc2nc(C(C)C)no2)n1`, the cytotoxicity at 70.5 h is -7.1%.
With `O=S(=O)(C1CC1)N1CCC(Cn2cccn2)CC1` the figure was -7.23%.
With `COC1CCCN(C(=O)NCCCF)C1` (stereo unspecified), the cytotoxicity at 70.5 h was -2.7%.
For `Cc1nn(C)cc1C(=O)N1CCC(C(=O)c2nc3ccccc3s2)CC1`, the cytotoxicity at 70.5 h is -4.17%.
For `COCCN(Cc1nccs1)C(=O)c1cc(-c2ccc(C)o2)n[nH]1`, the cytotoxicity at 70.5 h was -11.2%.
Turning to `CNC(=O)N1CCC2(CC1)CN(C(C)C)Cc1cc(F)ccc12`, the cytotoxicity at 70.5 h is -2.71%.
`COCCN(CCC#N)S(=O)(=O)c1ccc(F)cc1Cl`: the cytotoxicity at 70.5 h was 0.577%.
